Laboratory results: paper PMC5390247, “New method for quantification of gasotransmitter hydrogen sulfide in biological matrices by LC-MS/MS” (Scientific Reports, 2017)

Tests used:
[1] = target: T1, yeast CSE enzyme (CYS3) (Saccharomyces cerevisiae, UniProt P31373); assay: H2S production from SPRC by LC-MS/MS (sulfide dibimane); assay type: biochemical; details: 473 uM PAG; 473 uM SPRC as substrate; complete inhibition stated in words
T1 construct: full-length CYS3 gene amplified from S288C gDNA, expressed in E. coli (pTrc-CYS3), nickel column, SUMO-tag cut off
T1 sequence (P31373 2-394): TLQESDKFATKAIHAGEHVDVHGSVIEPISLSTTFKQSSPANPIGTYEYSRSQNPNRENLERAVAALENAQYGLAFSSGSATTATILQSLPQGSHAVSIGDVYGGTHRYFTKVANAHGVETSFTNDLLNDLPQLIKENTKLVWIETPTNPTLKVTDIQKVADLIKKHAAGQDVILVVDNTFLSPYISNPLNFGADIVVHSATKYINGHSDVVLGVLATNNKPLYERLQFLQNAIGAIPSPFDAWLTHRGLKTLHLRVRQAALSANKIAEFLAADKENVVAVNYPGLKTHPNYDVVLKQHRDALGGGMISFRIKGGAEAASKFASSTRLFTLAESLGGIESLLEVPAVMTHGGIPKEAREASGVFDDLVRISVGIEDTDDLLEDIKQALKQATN

[2] = target: T1, yeast CSE enzyme (CYS3); assay: H2S production by LC-MS/MS and substrate consumption; assay type: biochemical

SMILES: C#CCC(N)C(=O)O (racemic) [PAG, propargylglycine]
- H2S production from SPRC by LC-MS/MS (sulfide dibimane) [1]: propargylglycine (PAG) completely inhibited the hydrogen sulfide production of CYS3 by using SPRC

SMILES: N[C@@H](CCSC[C@H](N)C(=O)O)C(=O)O [CTT, L-cystathionine]
- H2S production by LC-MS/MS and substrate consumption ([2]; 473 uM CTT): hydrogen sulfide production increased rapidly whereas the amount of L-cystathionine (CTT) decreased accordingly

SMILES: C#CCSC[C@H](N)C(=O)O [SPRC, S-propargyl-cysteine]
- H2S production by LC-MS/MS and substrate consumption ([2]; 473 uM SPRC): SPRC elimination was accomplished with increased level of hydrogen sulfide in the CYS3 mixture
